Where “and” joins values, the source holds several entries; their conditions need not be identical. Identical values can stand only once. Like-named read-outs stand apart in the source and are kept apart here.
What was measured:
[1] = molecular target: T1, human Nav1.5 (Homo sapiens, UniProt Q14524); test: PatchXpress sodium current measurement, inactivated state block, Nav1.5; type: cell-based; details: determined by PatchXpress measurement, HEK 293 cells
T1 construct: expressed in transfected cells
Method: (§1) Cell Based Assays for Nav 1.7 and Nav 1.5 Activity
(§2) Compounds were tested on human Nav1.7 and Nav1.5 channels stably expressed in HEK 293 cells.
(§3) Sodium Current Measurements on the PatchXpress 7000:
(§4) To measure inactivated state block of sodium channels, test compounds were characterized in an automated PatchXpress® assay (Molecular Devices) using a double-pulse protocol on human Nav1.7 and Nav1.5 channels stably expressed in HEK 293 cells. Cells were held at a potential 20 mV negative to the potential at which ˜50% of the channels are inactivated. A 8000 ms pre-pulse 7 mV positive to the potential at which ˜50% of the channels are inactivated was given followed by a hyperpolarizing 2 ms pulse to −120 mV and a 20 ms test pulse to −20 mV. The protocol was applied to cells in the absence, presence of compound and after washout. The temperature of PatchXpress® instruments was maintained at 22° C. The following recording solutions were used. Internal solution (mM): 30 CsCl, 5 HEPES, 10 EGTA, 120 CsF, 5 NaF, 2 MgCl2, pH 7.3 with CsOH. External solution (mM): 120 NMDG, 40 NaCl, 1 KCl, 0.5 MgCl2, 5 HEPES, 2.7 CaCl2, pH 7.5 with NMDG-OH. Estimated IC50 values were calculated based on at least two compound concentrations tested. For all electrophysiology experiments, offline analysis was used to correct for current rundown and to determine percent inhibition as a function of drug concentration. IC50 values were determined by fitting to the Hill equation.

[2] = molecular target: T2, human Nav1.7 (Homo sapiens, UniProt Q15858); test: PatchXpress sodium current measurement, inactivated state block, Nav1.7; type: cell-based; details: channels stably expressed in HEK 293 cells, double-pulse protocol, 22° C.
T2 construct: expressed in transfected cells
Method: as §1, §2, §3, §4

[3] = read-out: potency for the Nav 1.7 sodium ion channel (1.7=)

T2 sequence (Q15858 whole entry): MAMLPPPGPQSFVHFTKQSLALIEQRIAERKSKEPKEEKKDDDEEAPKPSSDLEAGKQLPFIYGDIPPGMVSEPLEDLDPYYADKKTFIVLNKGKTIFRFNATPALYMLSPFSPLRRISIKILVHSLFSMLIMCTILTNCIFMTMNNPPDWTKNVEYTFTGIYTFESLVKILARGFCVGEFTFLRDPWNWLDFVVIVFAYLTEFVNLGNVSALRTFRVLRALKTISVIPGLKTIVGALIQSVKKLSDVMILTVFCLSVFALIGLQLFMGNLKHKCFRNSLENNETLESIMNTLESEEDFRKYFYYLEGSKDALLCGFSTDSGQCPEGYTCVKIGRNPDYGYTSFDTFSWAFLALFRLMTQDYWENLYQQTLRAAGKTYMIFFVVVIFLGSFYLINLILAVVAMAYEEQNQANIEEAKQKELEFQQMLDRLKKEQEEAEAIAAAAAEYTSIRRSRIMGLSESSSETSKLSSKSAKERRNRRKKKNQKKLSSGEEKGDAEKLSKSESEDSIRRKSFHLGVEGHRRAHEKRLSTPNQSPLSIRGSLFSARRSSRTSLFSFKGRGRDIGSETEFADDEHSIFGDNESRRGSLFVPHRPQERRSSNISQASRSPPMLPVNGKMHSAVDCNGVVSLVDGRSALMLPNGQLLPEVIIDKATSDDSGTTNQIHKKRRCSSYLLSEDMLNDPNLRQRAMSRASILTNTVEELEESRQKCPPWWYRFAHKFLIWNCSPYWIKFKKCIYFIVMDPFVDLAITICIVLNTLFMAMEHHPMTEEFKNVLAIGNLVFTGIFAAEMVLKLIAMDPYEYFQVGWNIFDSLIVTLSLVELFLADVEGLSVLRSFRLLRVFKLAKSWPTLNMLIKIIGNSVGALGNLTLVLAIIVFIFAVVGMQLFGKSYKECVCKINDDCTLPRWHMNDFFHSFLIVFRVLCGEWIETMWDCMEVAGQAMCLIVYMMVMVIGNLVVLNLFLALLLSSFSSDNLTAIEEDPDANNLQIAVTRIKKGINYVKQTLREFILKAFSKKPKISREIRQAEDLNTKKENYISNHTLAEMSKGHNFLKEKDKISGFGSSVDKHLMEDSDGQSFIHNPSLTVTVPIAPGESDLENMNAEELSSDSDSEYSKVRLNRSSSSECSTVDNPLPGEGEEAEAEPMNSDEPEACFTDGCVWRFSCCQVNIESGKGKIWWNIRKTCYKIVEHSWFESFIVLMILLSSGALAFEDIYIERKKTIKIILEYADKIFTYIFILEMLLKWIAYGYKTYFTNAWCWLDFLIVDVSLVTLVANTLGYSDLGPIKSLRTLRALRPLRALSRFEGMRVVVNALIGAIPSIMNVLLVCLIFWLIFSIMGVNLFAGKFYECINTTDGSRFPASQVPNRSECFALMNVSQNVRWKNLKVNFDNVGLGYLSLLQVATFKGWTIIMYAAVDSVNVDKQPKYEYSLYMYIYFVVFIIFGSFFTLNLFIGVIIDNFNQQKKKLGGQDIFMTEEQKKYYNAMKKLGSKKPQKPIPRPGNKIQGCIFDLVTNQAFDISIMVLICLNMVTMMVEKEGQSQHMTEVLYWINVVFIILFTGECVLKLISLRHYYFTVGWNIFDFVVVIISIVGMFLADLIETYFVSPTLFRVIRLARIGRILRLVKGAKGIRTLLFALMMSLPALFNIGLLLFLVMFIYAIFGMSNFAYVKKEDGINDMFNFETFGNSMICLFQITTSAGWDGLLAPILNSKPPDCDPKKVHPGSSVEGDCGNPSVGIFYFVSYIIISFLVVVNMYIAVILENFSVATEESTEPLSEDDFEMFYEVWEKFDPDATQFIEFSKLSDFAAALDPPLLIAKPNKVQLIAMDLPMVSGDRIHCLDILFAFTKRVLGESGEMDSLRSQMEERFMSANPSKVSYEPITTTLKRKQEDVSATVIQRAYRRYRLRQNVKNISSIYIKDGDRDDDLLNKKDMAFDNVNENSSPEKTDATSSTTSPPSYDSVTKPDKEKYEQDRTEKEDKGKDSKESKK
T1 sequence (Q14524 whole entry): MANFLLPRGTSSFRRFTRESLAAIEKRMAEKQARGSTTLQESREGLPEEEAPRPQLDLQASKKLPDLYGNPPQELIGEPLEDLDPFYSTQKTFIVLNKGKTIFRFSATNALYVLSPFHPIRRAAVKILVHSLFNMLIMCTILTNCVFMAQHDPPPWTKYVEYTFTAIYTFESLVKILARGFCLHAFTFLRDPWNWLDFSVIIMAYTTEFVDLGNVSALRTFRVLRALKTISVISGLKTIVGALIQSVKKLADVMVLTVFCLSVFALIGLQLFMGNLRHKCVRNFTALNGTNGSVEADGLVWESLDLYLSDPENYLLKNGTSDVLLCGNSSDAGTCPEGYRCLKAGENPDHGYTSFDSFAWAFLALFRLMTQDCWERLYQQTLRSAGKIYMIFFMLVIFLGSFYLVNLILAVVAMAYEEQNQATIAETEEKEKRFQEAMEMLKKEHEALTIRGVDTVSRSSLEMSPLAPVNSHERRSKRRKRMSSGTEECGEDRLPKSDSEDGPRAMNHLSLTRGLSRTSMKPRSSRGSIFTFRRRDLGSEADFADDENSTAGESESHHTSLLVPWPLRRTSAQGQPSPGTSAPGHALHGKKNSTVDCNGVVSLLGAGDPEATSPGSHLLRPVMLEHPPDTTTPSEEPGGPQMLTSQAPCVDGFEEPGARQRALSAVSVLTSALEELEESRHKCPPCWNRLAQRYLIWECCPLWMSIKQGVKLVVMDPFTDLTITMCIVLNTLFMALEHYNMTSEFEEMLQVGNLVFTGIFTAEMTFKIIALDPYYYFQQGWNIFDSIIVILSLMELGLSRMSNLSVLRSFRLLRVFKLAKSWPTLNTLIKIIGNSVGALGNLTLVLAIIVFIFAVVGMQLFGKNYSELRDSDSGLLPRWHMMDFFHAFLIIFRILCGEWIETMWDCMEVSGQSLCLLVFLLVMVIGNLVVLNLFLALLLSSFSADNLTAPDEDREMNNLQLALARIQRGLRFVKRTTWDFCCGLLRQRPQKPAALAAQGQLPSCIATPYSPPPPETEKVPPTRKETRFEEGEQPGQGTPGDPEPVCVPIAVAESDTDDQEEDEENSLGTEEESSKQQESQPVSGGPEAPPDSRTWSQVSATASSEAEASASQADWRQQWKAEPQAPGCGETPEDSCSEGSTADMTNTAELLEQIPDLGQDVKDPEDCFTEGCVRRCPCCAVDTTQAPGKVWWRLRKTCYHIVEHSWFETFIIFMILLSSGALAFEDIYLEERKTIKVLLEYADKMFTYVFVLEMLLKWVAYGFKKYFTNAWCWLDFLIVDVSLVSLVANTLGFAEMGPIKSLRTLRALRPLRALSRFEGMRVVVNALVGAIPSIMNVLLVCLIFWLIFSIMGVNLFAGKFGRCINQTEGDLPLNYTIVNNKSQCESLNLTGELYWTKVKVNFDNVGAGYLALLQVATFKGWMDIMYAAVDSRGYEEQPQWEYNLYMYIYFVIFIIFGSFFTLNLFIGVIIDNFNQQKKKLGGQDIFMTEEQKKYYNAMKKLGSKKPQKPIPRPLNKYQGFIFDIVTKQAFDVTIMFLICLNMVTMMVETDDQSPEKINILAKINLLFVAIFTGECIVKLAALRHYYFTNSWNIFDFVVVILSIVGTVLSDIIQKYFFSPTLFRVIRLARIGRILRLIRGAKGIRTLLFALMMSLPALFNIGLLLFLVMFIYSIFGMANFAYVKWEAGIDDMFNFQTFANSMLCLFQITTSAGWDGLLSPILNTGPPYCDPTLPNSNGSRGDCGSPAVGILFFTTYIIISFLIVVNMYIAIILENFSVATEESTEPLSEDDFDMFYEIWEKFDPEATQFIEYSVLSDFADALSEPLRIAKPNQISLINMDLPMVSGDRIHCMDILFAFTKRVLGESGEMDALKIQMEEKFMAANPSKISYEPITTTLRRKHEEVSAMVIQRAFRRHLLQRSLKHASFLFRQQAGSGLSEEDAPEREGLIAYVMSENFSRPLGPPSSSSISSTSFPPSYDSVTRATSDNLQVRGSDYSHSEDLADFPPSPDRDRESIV

Structure (SMILES) | ratio of Nav 1.5:Nav 1.7 potency [1] | IC50 [2, 3] | IC50 ([2]; potency for the Nav 1.7 sodium ion channel (1.7=))
C[C@H](c1ccccc1C#C[C@H]1CCCC[C@@H]1N)n1c(=O)oc2cc(S(=O)(=O)Nc3cccc(F)n3)c(F)cc21 (mixture of isomers) [Ex8-5, 3-[(1R)-1-(2-{[(1R,2S and 1S, 2R)-2-aminocyclohexyl]ethynyl}phenyl)ethyl]-5-fluoro-N-(6-fluoropyridin-2-yl)-2-oxo-2,3-dihydro-1,3-benzoxazole-6-sulfonamide] | 714 | 0.025 µM | 
Cl.O=c1oc2cc(S(=O)(=O)Nc3cccc(F)n3)c(F)cc2n1Cc1cccc2c1CNCC2F (racemic) [Ex5-9, (+/−)-5-Fluoro-3-((4-fluoro-1,2,3,4-tetrahydroisoquinolin-8-yl)methyl)-N-(6-fluoropyridin-2-yl)-2-oxo-2,3-dihydrobenzo[d]oxazole-6-sulfonamide hydrochloride] | 26 | 1.14 µM | 
Cl.NC1CCc2cccc(Cn3c(=O)oc4cc(S(=O)(=O)Nc5cccc(F)n5)c(F)cc43)c2C1 (single isomer, unassigned) [Ex13-4, (S or R)-3-((7-Amino-5,6,7,8-tetrahydronaphthalen-1-yl)methyl)-5-fluoro-N-(6-fluoropyridin-2-yl)-2-oxo-2,3-dihydrobenzo[d]oxazole-6-sulfonamide hydrochloride] | 304 | 0.089 µM | 
NC1CCc2cccc(Cn3c(=O)oc4cc(S(=O)(=O)Nc5cccc(F)n5)c(F)cc43)c2C1 (single isomer, unassigned) [Ex13-5, (R or S)-3-[(7-amino-5,6,7,8-tetrahydronaphthalen-1-yl)methyl]-5-fluoro-N-(6-fluoropyridin-2-yl)-2-oxo-2,3-dihydro-1,3-benzoxazole-6-sulfonamide] | 914 | 0.04 µM | 
NC1CCc2cccc(Cn3c(=O)oc4cc(S(=O)(=O)Nc5cccc(F)n5)ccc43)c2C1 (single isomer, unassigned) [Ex13-6, (S or R)-3-[(7-amino-5,6,7,8-tetrahydronaphthalen-1-yl)methyl]-N-(6-fluoropyridin-2-yl)-2-oxo-2,3-dihydro-1,3-benzoxazole-6-sulfonamide] | 43 | 0.147 µM | 
Cc1cc2c(cc1S(=O)(=O)Nc1cccc(F)n1)oc(=O)n2Cc1cccc2c1CC(N)CC2 (single isomer, unassigned) [Ex17-5, (R or S)-3-[(7-amino-5,6,7,8-tetrahydronaphthalen-1-yl)methyl]-N-(6-fluoropyridin-2-yl)-5-methyl-2-oxo-2,3-dihydro-1,3-benzoxazole-6-sulfonamide] | 310 | 0.024 µM | 
Cc1cc2c(cc1S(=O)(=O)Nc1cccc(F)n1)oc(=O)n2Cc1cccc2c1CC(N)CC2 (single isomer, unassigned) [Ex17-6, (S or R)-3-[(7-amino-5,6,7,8-tetrahydronaphthalen-1-yl)methyl]-N-(6-fluoropyridin-2-yl)-5-methyl-2-oxo-2,3-dihydro-1,3-benzoxazole-6-sulfonamide] | 178 | 0.012 µM | 
O=c1oc2cc(S(=O)(=O)Nc3cccc(F)n3)c(F)cc2n1Cc1cccc2c1CNCC2F (single isomer, unassigned; enantiomer 1) [Ex5-10, (R or S)-5-fluoro-N-(6-fluoropyridin-2-yl)-3-[(4-fluoro-1,2,3,4-tetrahydroisoquinolin-8-yl)methyl]-2-oxo-2,3-dihydro-1,3-benzoxazole-6-sulfonamide (enantiomer 1)] | > 31 | 0.961 µM | 
O=c1oc2cc(S(=O)(=O)Nc3cccc(F)n3)c(F)cc2n1Cc1cccc2c1CNCC2F (single isomer, unassigned; enantiomer 2) [Ex5-11, (S or R)-5-fluoro-N-(6-fluoropyridin-2-yl)-3-[(4-fluoro-1,2,3,4-tetrahydroisoquinolin-8-yl)methyl]-2-oxo-2,3-dihydro-1,3-benzoxazole-6-sulfonamide (enantiomer 2)] | 54 | 0.727 µM | 
C[C@H](c1cccc2c1CNCC2)n1c(=O)oc2cc(S(=O)(=O)Nc3cccc(F)n3)ccc21.Cl [Ex2-5, (R)—N-(6-fluoropyridin-2-yl)-2-oxo-3-(1-(1,2,3,4-tetrahydroisoquinolin-8-yl)ethyl)-2,3-dihydrobenzo[d]oxazole-6-sulfonamide hydrochloride] | 316 | 0.152 µM | 
C[C@H](c1cccc2c1CNCC2)n1c(=O)oc2cc(S(=O)(=O)Nc3cccc(F)n3)c(F)cc21.Cl [Ex3-5, (R)-5-fluoro-N-(6-fluoropyridin-2-yl)-2-oxo-3-(1-(1,2,3,4-tetrahydroisoquinolin-8-yl)ethyl)-2,3-dihydrobenzo[d]oxazole-6-sulfonamide hydrochloride] | 158 | 0.099 µM | 
Nc1ccc2c(c1)C(n1c(=O)oc3cc(S(=O)(=O)Nc4cccc(F)n4)c(F)cc31)CCC2 (centres unmarked) [Ex4-4, 3-(7-Amino-1,2,3,4-tetrahydronaphthalen-1-yl)-5-fluoro-N-(6-fluoropyridin-2-yl)-2-oxo-2,3-dihydro-1,3-benzoxazole-6-sulfonamide] | 166 | 0.482 µM | 
O=c1oc2cc(S(=O)(=O)Nc3cccc(F)n3)c(F)cc2n1C1CCCc2ccc(F)cc21 (centres unmarked) [Ex4-5, 5-fluoro-N-(6-fluoropyridin-2-yl)-3-(7-fluoro-1,2,3,4-tetrahydronaphthalen-1-yl)-2-oxo-2,3-dlihydro-1,3-benzoxazole-6-sulfonamide] | 101 | 0.65 µM | 
C[C@H](c1ccccc1C1=CCNCC1)n1c(=O)oc2cc(S(=O)(=O)Nc3cccc(F)n3)c(F)cc21 [Ex7-5, (R)-5-Fluoro-N-(6-fluoropyridin-2-yl)-2-oxo-3-(1-(2-(1,2,3,6-tetrahydropyridin-4-yl)phenyl)ethyl)-2,3-dihydrobenzo[d]oxazole-6-sulfonamide] | 1398 | 0.003 µM | 
C[C@H](c1ccccc1C1=CCC(N)CC1)n1c(=O)oc2cc(S(=O)(=O)Nc3cccc(F)n3)c(F)cc21 (stereo partly drawn) [Ex7-6, 3-{(1R)-1-[2-(4-aminocyclohex-1-en-1-yl)phenyl]ethyl}-5-fluoro-N-(6-fluoropyridin-2-yl)-2-oxo-2,3-dihydro-1,3-benzoxazole-6-sulfonamide] | 123 | 0.46 µM | 
C[C@H](c1ccccc1C1=CCNCCC1)n1c(=O)oc2cc(S(=O)(=O)Nc3cccc(F)n3)c(F)cc21 [Ex7-7, 5-fluoro-N-(6-fluoropyridin-2-yl)-2-oxo-3-{(1R)-1-[2-(2,5,6,7-tetrahydro-1H-azepin-4-yl)phenyl]ethyl}-2,3-dihydro-1,3-benzoxazole-6-sulfonamide] | 239 | 0.041 µM | 
C[C@H](c1ccccc1C1=C[C@@H]2CC[C@H](C1)N2)n1c(=O)oc2cc(S(=O)(=O)Nc3cccc(F)n3)c(F)cc21 [Ex7-8, 3-[(1R)-1-{2-[(1S,5R)-8-azabicyclo[3.2.1]oct-2-en-3-yl]phenyl}ethyl]-5-fluoro-N-(6-fluoropyridin-2-yl)-2-oxo-2,3-dihydro-1,3-benzoxazole-6-sulfonamide] | 681 |  | 0.081 µM
C[C@H](c1cccc(C2=CCNCC2)c1)n1c(=O)oc2cc(S(=O)(=O)Nc3cccc(F)n3)c(F)cc21 [Ex7-10, 5-fluoro-N-(6-fluoropyridin-2-yl)-2-oxo-3-{(1R)-1-[3-(1,2,3,6-tetrahydropyridin-4-yl)phenyl]ethyl}-2,3-dihydro-1,3-benzoxazole-6-sulfonamide] | 331 | 0.127 µM | 
C[C@H](c1cccc(C2=CCCNC2)c1)n1c(=O)oc2cc(S(=O)(=O)Nc3cccc(F)n3)c(F)cc21 [Ex7-11, 5-fluoro-N-(6-fluoropyridin-2-yl)-2-oxo-3-{(1R)-1-[3-(1,2,5,6-tetrahydropyridin-3-yl)phenyl]ethyl}-2,3-dihydro-1,3-benzoxazole-6-sulfonamide] | 461 | 0.065 µM | 
C[C@H](c1ccccc1C#CCN)n1c(=O)oc2cc(S(=O)(=O)Nc3cccc(F)n3)c(F)cc21 [Ex8-1, (R)-3-(1-(2-(3-Aminoprop-1-yn-1-yl)phenyl)ethyl)-5-fluoro-N-(6-fluoropyridin-2-yl)-2-oxo-2,3-dihydrobenzo[d]oxazole-6-sulfonamide] | 546 | 0.05 µM | 
C[C@H](c1ccccc1CCN)n1c(=O)oc2cc(S(=O)(=O)Nc3cccc(F)n3)c(F)cc21 [Ex24-2, 3-{(1R)-1-[2-(2-aminoethyl)phenyl]ethyl}-5-fluoro-N-(6-fluoropyridin-2-yl)-2-oxo-2,3-dihydro-1,3-benzoxazole-6-sulfonamide] |  | 0.027 µM and 0.018 µM | 

Reference: US9624208B2, “Benzoxazolinone compounds with selective activity in voltage-gated sodium channels” (Merck Sharp & Dohme Corp., priority 2012, dated 2017)
